Source: patent publication US20100331338A1, “Glucokinase Activators” (Merck Patent GMBH, priority 2008, published 2010)

Target: T1, hGK (Homo sapiens, UniProt P35557)
T1 sequence (P35557 1-465): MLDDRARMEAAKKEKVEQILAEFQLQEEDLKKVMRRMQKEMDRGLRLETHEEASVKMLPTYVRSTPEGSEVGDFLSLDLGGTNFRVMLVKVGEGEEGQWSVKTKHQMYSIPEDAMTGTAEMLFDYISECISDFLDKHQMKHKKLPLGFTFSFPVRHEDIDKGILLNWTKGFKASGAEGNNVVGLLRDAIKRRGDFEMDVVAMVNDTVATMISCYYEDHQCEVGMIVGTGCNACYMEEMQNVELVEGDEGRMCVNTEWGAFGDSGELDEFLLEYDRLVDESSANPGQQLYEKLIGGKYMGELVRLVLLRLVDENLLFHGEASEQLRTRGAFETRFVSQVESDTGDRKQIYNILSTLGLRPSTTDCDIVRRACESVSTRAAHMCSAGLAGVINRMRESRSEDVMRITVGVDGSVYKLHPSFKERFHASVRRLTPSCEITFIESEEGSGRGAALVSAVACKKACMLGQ
Assay: Glucokinase Activation Screening Assay (coupled enzyme assay with PK/LDH)
Format: biochemical
Conditions: 2 mM glucose; for hGK fold activation at 30 μM: fold activation at 30 μM compound
Protocol: Glucokinase Activation Screening Assay
GK activity (human or rat enzyme) is measured by a coupled enzyme assay using pyruvate kinase (PK) and lactate dehydrogenase (LDH) as coupling enzymes. GK activity is calculated from the decline in NADH monitored photometrically with a microtiter plate (MTP) reader at 340 nm.
For screening purposes, the GK assay is routinely run in a 384-MTP format, in a total volume of 33 μl/well. 10 μl of the ATP-regeneration solution (in HEPES-buffer*, pH 7.0, 6.73 U/ml pyruvate kinase, 6.8 U/ml lactate dehydrogenase) and 10 μl of the glucokinase-/glucose solution (15 μg/ml, 6.6 mM glucose in HEPES-buffer*, pH 7.0; the concentration of the glucose stock-solution was 660 mM in Millipore H2O) were mixed together with […] of a 10% DMSO solution (in HEPES-buffer*, pH 7.0) containing 3.3-fold the amounts of the compounds to achieve final compound concentrations in the range between 1 nM to 30 μM (sometimes 300 μM) in the assay solution (s. below). The solutions were mixed for 5 sec, and after a centrifugation at 243×g for 5 min, the solutions were preincubated for 25 min at room temperature.
The reaction was started by the addition of 10 μl of the NADH-/ATP-solution (4.29 mM NADH, 4.95 mM ATP, in HEPES-buffer*). The MTP was shaken for 5 sec., and then, the absorbance at 340 nm was monitored continuously in a MTP-reader (TECAN Spectro fluor plus) for the next 27 min (with a MTP-cycling time of 199 sec.). The final concentrations of the various components were as follows: 49.5 mM Hepes, pH 7.0, 1.49 mM PEP,1,3 mM NADH, 49.5 mM KCl, 4.96 mM MgCl2, 1.5 mM Mg-ATP, 1.98 mM DTT, 2.04 U/ml pyruvate kinase, 2.06 U/ml lactate-dehydrogenase, 0.91% DMSO, 0.15 μg/well glucokinase, and test compounds in the range between 1 nM and 300 μM.
The change in the optical density (ΔOD340 nm) in the presence of the compound was expressed relative to the ΔOD340 nm, ctrl of the control incubation (in the presence of 2 mM glucose and 0.91% DMSO), taking into account the optical density of the blank sample (incubation in the absence of 2 mM glucose). For the determination of the half maximal effective concentration (EC50), the %-Ctrl-values were plotted in a semi-logarithmic graph against the conc. of the compound of interest. The data points were fitted to a sigmoid curve function (f(x)=((%-Ctrlmax%-Ctrlmin)/(1−(EC50/x**^n(Hill)))+%-Ctrlmin)) by a non-linear regression analysis.
* Hepes-buffer (50 mM Hepes, pH 7.0, 5 mM MgCl2, 50 mM KCl, 1.5 mM PEP, 0.1% BSA). DTT was added to the Hepes-buffer from a 200× stock solution (in Millipore H2O) freshly each day. The final concentration of DTT in the Hepes-buffer is 2 mM.

Compound | hGK fold activation at 30 μM | EC50 [µM]
CCCc1cc(C(=O)Nc2nc(CC(=O)O)cs2)cs1 [Example 46, {2-[(5-Propyl-thiophene-3-carbonyl)-amino]-thiazol-4-yl}-acetic acid] | 2.1 | –
CCN(CC)S(=O)(=O)c1cc(C(=O)Nc2nccs2)sc1C [Example 48, 4-Diethylsulfamoyl-5-methyl-thiophene-2-carboxylic acid thiazol-2-ylamide] | 6.4 | 3.9
Cc1sc(C(=O)Nc2nccs2)cc1S(=O)(=O)NCc1ccccc1 [Example 49, 4-Benzylsulfamoyl-5-methyl-thiophene-2-carboxylic acid thiazol-2-ylamide] | 1.3 | –
Cc1sc(C(=O)Nc2nccs2)cc1S(=O)(=O)N(C)C [Example 50, 4-Dimethylsulfamoyl-5-methyl-thiophene-2-carboxylic acid thiazol-2-ylamide] | 2.6 | 3.9
CCCOc1sc(C(=O)Nc2nccs2)cc1S(C)(=O)=O [Example 52, 4-Methanesulfonyl-5-propoxy-thiophene-2-carboxylic acid thiazol-2-ylamide] | 2.1 | 10
CCCc1cc(C(=O)Nc2nccs2)cs1 [Example 53, 5-Propyl-thiophene-3-carboxylic acid thiazol-2-ylamide] | 5.6 | 10
